Key:
cells = settings: Mus musculus, BaF3, 72 h
K562 = test: cells; settings: Homo sapiens, K562, 72 h
Description: Antiproliferative activity against human K562 cells expressing wild type Bcr-Abl after 72 hrs by CCK-8 assay

[1] = Antiproliferative activity against mouse BA/F3 cells expressing wild type Bcr-Abl after 72 hrs by CCK-8 assay; type: functional, cell-based; settings: BaF3, 72 h
Bcr/Abl fusion protein [2] = target: Bcr/Abl fusion protein (Homo sapiens, UniProt P00519, T315I); type: protein assay
Bcr/Abl fusion protein [3] = target: Bcr/Abl fusion protein (Homo sapiens, UniProt P00519); type: protein assay
Description: Inhibition of wild type Bcr-Abl (unknown origin) using Tyr2 peptide substrate after 2 hrs by FRET-based Z'-lyte assay

[4] = Tmax in Sprague-Dawley rat at 10 mg/kg, iv; type: ADME, organism-based; settings: in vivo
Rattus norvegicus [5] = test: AUC (0 to infinity) in Sprague-Dawley rat at 25 mg/kg, po; type: ADME, organism-based; design: dose 25 mg/kg, time infinity, route oral; settings: in vivo
[6] = Half life in Sprague-Dawley rat at 25 mg/kg, po; type: ADME, organism-based; settings: in vivo
[7] = Cmax in Sprague-Dawley rat at 10 mg/kg, iv; type: ADME, organism-based; design: dose 10 mg/kg, route intravenous; settings: in vivo
[8] = Tmax in Sprague-Dawley rat at 25 mg/kg, po; type: ADME, organism-based; settings: in vivo
[9] = Half life in Sprague-Dawley rat at 10 mg/kg, iv; type: ADME, organism-based; settings: in vivo
[10] = Cmax in Sprague-Dawley rat at 25 mg/kg, po; type: ADME, organism-based; design: dose 25 mg/kg, route oral; settings: in vivo
Rattus norvegicus [11] = test: AUC (0 to infinity) in Sprague-Dawley rat at 10 mg/kg, iv; type: ADME, organism-based; design: dose 10 mg/kg, time infinity, route intravenous; settings: in vivo

Row | Compound | IC50 (cells) | IC50 (K562) | IC50 (Bcr/Abl fusion protein [2]) | IC50 (Bcr/Abl fusion protein [3]) | Tmax [4] | AUC (Rattus norvegicus [5]) | half-life [6] | Cmax [7] | Tmax [8] | half-life [9] | Cmax [10] | AUC (Rattus norvegicus [11]) | IC50 [1]
1 | Cc1ccc(NC(=O)c2ccc(CN3CCN(C)CC3)cc2)cc1Nc1nccc(-c2cccnc2)n1 [IMATINIB] | > 1000 nM | 280 nM |  |  |  |  |  |  |  |  |  |  | 
2 | Cc1cn(-c2cc(NC(=O)c3ccc(C)c(C#Cc4cnc(NC(C)C)nc4)c3)cc(C(F)(F)F)c2)cn1 | 1160 nM | 27 nM | 187 nM | 125 nM |  |  |  |  |  |  |  |  | 23 nM
3 | Cc1cn(-c2cc(NC(=O)c3ccc(C)c(C#Cc4cnc(NCCO)nc4)c3)cc(C(F)(F)F)c2)cn1 | 1080 nM | 13 nM | 19 nM | 18 nM |  |  |  |  |  |  |  |  | 17 nM
4 | Cc1cn(-c2cc(NC(=O)c3ccc(C)c(C#Cc4cnc(Nc5ccccc5)nc4)c3)cc(C(F)(F)F)c2)cn1 | 2400 nM | 111 nM | 161 nM | 238 nM |  |  |  |  |  |  |  |  | 208 nM
5 | Cc1cn(-c2cc(NC(=O)c3ccc(C)c(C#Cc4cnc(N5CCCC5)nc4)c3)cc(C(F)(F)F)c2)cn1 | > 10000 nM | > 925 nM | > 1000 nM | > 1000 nM |  |  |  |  |  |  |  |  | > 1000 nM
6 | CNc1ncc(C#Cc2cc(C(=O)Nc3cc(-n4cnc(C)c4)cc(C(F)(F)F)c3)ccc2C)cn1 | 85 nM | 7 nM | 6 nM | 10 nM | 1.98 min | 48574 µg/L/h | 468 min | 11000 ng/mL | 2 h | 450 min | 3090 ng/mL | 35809 µg/L/h | 3 nM

Second part, led by results:

Row | IC50 (cells) | IC50 (K562) | IC50 (Bcr/Abl fusion protein [2]) | IC50 (Bcr/Abl fusion protein [3]) | Tmax [4] | AUC (Rattus norvegicus [5]) | half-life [6] | Cmax [7] | Tmax [8] | half-life [9] | Cmax [10] | AUC (Rattus norvegicus [11]) | Compound | IC50 [1]
7 | 135 nM | 23 nM | 24 nM | 28 nM |  |  |  |  |  |  |  |  | Cc1cn(-c2cc(NC(=O)c3ccc(C)c(C#Cc4cnc(NC(C)(C)C)nc4)c3)cc(C(F)(F)F)c2)cn1 | 38 nM
8 |  | 22 nM |  |  |  |  |  |  |  |  |  |  | Cc1cn(-c2cc(NC(=O)c3ccc(C)c(Nc4nccc(-c5cccnc5)n4)c3)cc(C(F)(F)F)c2)cn1 [NILOTINIB] | 
9 | 2710 nM | 30 nM | 458 nM | 93 nM |  |  |  |  |  |  |  |  | Cc1cn(-c2cc(NC(=O)c3ccc(C)c(C#Cc4cnc(NC5CCCCC5)nc4)c3)cc(C(F)(F)F)c2)cn1 | 49 nM
10 | > 1000 nM | 1 nM |  |  |  |  |  |  |  |  |  |  | Cc1nc(Nc2ncc(C(=O)Nc3c(C)cccc3Cl)s2)cc(N2CCN(CCO)CC2)n1 [DASATINIB] | 
11 | 78 nM | 1 nM | 7 nM | 8 nM |  |  |  |  |  |  |  |  | Cc1cn(-c2cc(NC(=O)c3ccc(C)c(C#Cc4cnc(N)nc4)c3)cc(C(F)(F)F)c2)cn1 | 2 nM
12 | 113 nM | 6 nM | 19 nM | 30 nM |  |  |  |  |  |  |  |  | CCNc1ncc(C#Cc2cc(C(=O)Nc3cc(-n4cnc(C)c4)cc(C(F)(F)F)c3)ccc2C)cn1 | 8 nM
13 | 8430 nM | 355 nM | > 1000 nM | 300 nM |  |  |  |  |  |  |  |  | Cc1cn(-c2cc(NC(=O)c3ccc(C)c(C#Cc4cnc(N5CCOCC5)nc4)c3)cc(C(F)(F)F)c2)cn1 | 292 nM
14 | > 10000 nM | 640 nM | > 1000 nM | 904 nM |  |  |  |  |  |  |  |  | Cc1cn(-c2cc(NC(=O)c3ccc(C)c(C#Cc4cnc(N5CCCCC5)nc4)c3)cc(C(F)(F)F)c2)cn1 | 683 nM

— ChEMBL document CHEMBL3603836, “Hybrid pyrimidine alkynyls inhibit the clinically resistance related Bcr-Abl(T315I) mutant” (Bioorg Med Chem Lett, 2015)
